Our source for the EC50 values is US20220162191A1, “SMALL MOLECULE MODULATORS OF IL-17” (LEO PHARMA A/S, priority 2019, published 2022).

pEC50: −log10 of the molar value.

The target of the assay is T1, human IL-17AA (Homo sapiens, UniProt Q16552).
T1 construct: host or cells: HEK (human embryonic kidney) cells
T1 sequence (Q16552 24-155) 1: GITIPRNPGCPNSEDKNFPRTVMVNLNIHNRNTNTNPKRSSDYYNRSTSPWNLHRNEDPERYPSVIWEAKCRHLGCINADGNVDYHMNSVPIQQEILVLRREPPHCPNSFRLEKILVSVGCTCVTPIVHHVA
T1 sequence (Q16552 24-155) 2: T1 sequence (Q16552 24-155) 1
The experiment in a line: IL-8 release assay in human epithelial keratinocytes adult (HEKa). Format: cell-based. The settings on record: 3 ng/ml human IL-17AA + 10 ng/ml human TNFalpha, 68-72 h, IL-8 by HTRF, read-out: Rel EC50 L-8 release assay. In a few lines:
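Adult human keratinocytes in Epilife with HKGS minus hydrocortisone, treated with compound then stimulated with final 3 ng/ml HEK-derived human IL-17AA plus 10 ng/ml TNF-alpha for 68–72 h at 37 °C; TNF-alpha alone defines 100% inhibition. Secreted IL-8 by HTRF; relative IC50 and Emax from four-parameter fits.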
For orientation: TR-FRET usually uses a lanthanide donor and a delayed reading to cut background.
What is called pEC50 is the EC50 on a negative log10 scale, so that one unit is a factor of ten. Take `Cn1cnnc1-c1ccc(NC(=O)C(Cc2cc(-c3cccc(C4CC4)c3)ccc2Cl)NC(=O)c2ccnn2C)cc1` (centres unmarked) [Example 170, N-[1-[[2-chloro-5-(3-cyclopropylphenyl)phenyl]methyl]-2-[4-(4-methyl-1,2,4-triazol-3-yl)anilino]-2-oxo-ethyl]-2-methyl-pyrazole-3-carboxamide]: the pEC50 is 6.00 to 7.00.

As to `CCCCn1cc(-c2ccc(Cl)c(C[C@H](NC(=O)c3ccnn3C)C(=O)Nc3ccc(-c4cncn4C)cc3)c2)cn1` [Example 171], the pEC50 is 6.00 to 7.00. Next, `Cn1cnnc1-c1ccc(NC(=O)C(Cc2cc(-c3ccc(O)c(C(=O)N4CCC4)c3)ccc2Cl)NC(=O)c2ccnn2C)cc1` (centres unmarked) [Example 172, N-[1-[[5-[3-(azetidine-1-carbonyl)-4-hydroxy-phenyl]-2-chloro-phenyl]methyl]-2-[4-(4-methyl-1,2,4-triazol-3-yl)anilino]-2-oxo-ethyl]-2-methyl-pyrazole-3-carboxamide]: less than 6.00; `Cn1cnnc1-c1ccc(NC(=O)C(Cc2cc(-c3ccc(O)c(C(=O)N4CCNCC4)c3)ccc2Cl)NC(=O)c2ccnn2C)cc1` (centres unmarked) [Example 173, N-[1-[[2-chloro-5-[4-hydroxy-3-(piperazine-1-carbonyl)phenyl]phenyl]methyl]-2-[4-(4-methyl-1,2,4-triazol-3-yl)anilino]-2-oxo-ethyl]-2-methyl-pyrazole-3-carboxamide]: less than 6.00. As to `Cc1n[nH]cc1-c1ccc(NC(=O)[C@H](Cc2cc(-c3ccc(=O)n(C(C)C)c3)ccc2Cl)NC(=O)c2ccnn2C)cc1O` [Example 174, N-[(1S)-1-[[2-chloro-5-(1-isopropyl-6-oxo-3-pyridyl)phenyl]methyl]-2-[3-hydroxy-4-(3-methyl-1H-pyrazol-4-yl)anilino]-2-oxo-ethyl]-2-methyl-pyrazole-3-carboxamide], the pEC50 was greater than 7.00. As for `CC(C)n1cc(-c2ccc(Cl)c(C[C@H](NC(=O)c3ccnn3C)C(=O)Nc3ccc(-c4cn[nH]c4)c(O)c3)c2)ccc1=O` [Example 175, N-[(1S)-1-[[2-chloro-5-(1-isopropyl-6-oxo-3-pyridyl)phenyl]methyl]-2-[3-hydroxy-4-(1H-pyrazol-4-yl)anilino]-2-oxo-ethyl]-2-methyl-pyrazole-3-carboxamide], the negative-log EC50 (pEC50) is greater than 7.00.

On to `Cn1cncc1-c1ccc(NC(=O)C(Cc2cc(-c3cccc(C(C)(C)N)c3)ccc2Cl)NC(=O)c2ccnn2C)cc1` (centres unmarked) [Example 176, N-[1-[[5-[3-(1-amino-1-methyl-ethyl)phenyl]-2-chloro-phenyl]methyl]-2-[4-(3-methylimidazol-4-yl)anilino]-2-oxo-ethyl]-2-methyl-pyrazole-3-carboxamide], for which the pEC50 was greater than 7.00.

As to `Cc1n[nH]c(C)c1-c1ccc(NC(=O)[C@H](Cc2cc(-c3ccc(=O)n(C(C)C)c3)ccc2Cl)NC(=O)c2ccnn2C)cc1O` [Example 177, N-[(1S)-1-[[2-chloro-5-(1-isopropyl-6-oxo-3-pyridyl)phenyl]methyl]-2-[4-(3,5-dimethyl-1H-pyrazol-4-yl)-3-hydroxy-anilino]-2-oxo-ethyl]-2-methyl-pyrazole-3-carboxamide], the pEC50 is greater than 7.00. Consider `Cn1cnnc1-c1ccc(NC(=O)C(Cc2cc(-c3ccc(O)c(C4=NCCCO4)c3)ccc2Cl)NC(=O)c2ccnn2C)cc1` (centres unmarked) [Example 178, N-[1-[[2-chloro-5-[3-(5,6-dihydro-4H-1,3-oxazin-2-yl)-4-hydroxy-phenyl]phenyl]methyl]-2-[4-(4-methyl-1,2,4-triazol-3-yl)anilino]-2-oxo-ethyl]-2-methyl-pyrazole-3-carboxamide], for which the pEC50 is 6.00 to 7.00.

Regarding `Cn1cncc1-c1ccc(NC(=O)C(Cc2cc(-c3cccc(C(C)(C)O)c3)ccc2Cl)NC(=O)c2ccnn2C)cc1` (centres unmarked) [Example 179, N-[1-[[2-chloro-5-[3-(1-hydroxy-1-methyl-ethyl)phenyl]phenyl]methyl]-2-[4-(3-methylimidazol-4-yl)anilino]-2-oxo-ethyl]-2-methyl-pyrazole-3-carboxamide], the pEC50 was greater than 7.00. Take `Cc1ncn(C)c1-c1ccc(NC(=O)[C@H](Cc2cc(-c3cccc(C(C)(C)O)c3)ccc2Cl)NC(=O)c2ccnn2C)cc1` [Example 181, N-[(1S)-[[2-chloro-5-[3-(1-hydroxy-1-methyl-ethyl)phenyl]phenyl]methyl]-2-[4-(3,5-dimethylimidazol-4-yl)anilino]-2-oxo-ethyl]-2-methyl-pyrazole-3-carboxamide]: the pEC50 is greater than 7.00. Next, `Cc1ncn(C)c1-c1ccc(NC(=O)[C@H](Cc2cc(-c3cnn(C(C)(C)C)c3)ccc2Cl)NC(=O)c2ccnn2C)cc1` [Example 182, N-[(1S)-1-[[5-(1-tert-butylpyrazol-4-yl)-2-chloro-phenyl]methyl]-2-[4-(3,5-dimethylimidazol-4-yl)anilino]-2-oxo-ethyl]-2-methyl-pyrazole-3-carboxamide]: greater than 7.00; `Cn1cncc1-c1ccc(NC(=O)C(Cc2cc(-c3ccnc(N4CC5(COC5)C4)c3)ccc2Cl)NC(=O)c2ccnn2C)cc1` (centres unmarked) [Example 183, N-[1-[[2-chloro-5-[2-(6-oxa-2-azaspiro[3.3]heptan-2-yl)-4-pyridyl]phenyl]methyl]-2-[4-(3-methylimidazol-4-yl)anilino]-2-oxo-ethyl]-2-methyl-pyrazole-3-carboxamide]: 6.00 to 7.00; `CN(C)[C@H]1CCN(c2cc(-c3ccc(Cl)c(CC(NC(=O)c4ccnn4C)C(=O)Nc4ccc(-c5cncn5C)cc4)c3)ccn2)C1` (stereo partly drawn) [Example 184, N-[1-[[2-chloro-5-[2-[(3S)-3-(dimethylamino)pyrrolidin-1-yl]-4-pyridyl]phenyl]methyl]-2-[4-(3-methylimidazol-4-yl)anilino]-2-oxo-ethyl]-2-methyl-pyrazole-3-carboxamide]: 6.00 to 7.00. As to `Cn1cncc1-c1ccc(NC(=O)C(Cc2cc(-c3ccnc(N4CC[C@H](CO)C4)c3)ccc2Cl)NC(=O)c2ccnn2C)cc1` (stereo partly drawn) [Example 185, N-[1-[[2-chloro-5-[2-[(3S)-3-(hydroxymethyl)pyrrolidin-1-yl]-4-pyridyl]phenyl]methyl]-2-[4-(3-methylimidazol-4-yl)anilino]-2-oxo-ethyl]-2-methyl-pyrazole-3-carboxamide], the negative logarithm of the EC50 (pEC50) was 6.00 to 7.00. Next, `Cn1cncc1-c1ccc(NC(=O)C(Cc2cc(-c3ccnc(N4CC[C@@H](CO)C4)c3)ccc2Cl)NC(=O)c2ccnn2C)cc1` (stereo partly drawn) [Example 186, N-[1-[[2-chloro-5-[2-[(3R)-3-(hydroxymethyl)pyrrolidin-1-yl]-4-pyridyl]phenyl]methyl]-2-[4-(3-methylimidazol-4-yl)anilino]-2-oxo-ethyl]-2-methyl-pyrazole-3-carboxamide]: 6.00 to 7.00. In the case of `Cn1cncc1-c1ccc(NC(=O)C(Cc2cc(-c3ccnc(N4CCC4CO)c3)ccc2Cl)NC(=O)c2ccnn2C)cc1` (centres unmarked) [Example 187, N-[1-[[2-chloro-5-[2-[2-(hydroxymethyl)azetidin-1-yl]-4-pyridyl]phenyl]methyl]-2-[4-(3-methylimidazol-4-yl)anilino]-2-oxo-ethyl]-2-methyl-pyrazole-3-carboxamide], the pEC50 is 6.00 to 7.00. `Cn1cncc1-c1ccc(NC(=O)C(Cc2cc(-c3ccnc(N4CC[C@H]4CO)c3)ccc2Cl)NC(=O)c2ccnn2C)cc1` (stereo partly drawn) [Example 188, N-[1-[[2-chloro-5-[2-[(2S)-2-(hydroxymethyl)azetidin-1-yl]-4-pyridyl]phenyl]methyl]-2-[4-(3-methylimidazol-4-yl)anilino]-2-oxo-ethyl]-2-methyl-pyrazole-3-carboxamide]: the pEC50 is 6.00 to 7.00.

Regarding `Cn1cncc1-c1ccc(NC(=O)C(Cc2cc(-c3ccnc(N4CCC[C@@H]4CO)c3)ccc2Cl)NC(=O)c2ccnn2C)cc1` (stereo partly drawn) [Example 189, N-[1-[[2-chloro-5-[2-[(2R)-2-(hydroxymethyl)pyrrolidin-1-yl]-4-pyridyl]phenyl]methyl]-2-[4-(3-methylimidazol-4-yl)anilino]-2-oxo-ethyl]-2-methyl-pyrazole-3-carboxamide], the pEC50 is 6.00 to 7.00. Take `Cn1cncc1-c1ccc(NC(=O)C(Cc2cc(-c3ccnc(N4CC(CO)C4)c3)ccc2Cl)NC(=O)c2ccnn2C)cc1` (centres unmarked) [Example 190, N-[1-[[2-chloro-5-[2-[3-(hydroxymethyl)azetidin-1-yl]-4-pyridyl]phenyl]methyl]-2-[4-(3-methylimidazol-4-yl)anilino]-2-oxo-ethyl]-2-methyl-pyrazole-3-carboxamide]: the pEC50 is 6.00 to 7.00. Regarding `Cn1cncc1-c1ccc(NC(=O)C(Cc2cc(-c3ccnc(N4CC[C@H](O)C4)c3)ccc2Cl)NC(=O)c2ccnn2C)cc1` (stereo partly drawn) [Example 191, N-[1-[[2-chloro-5-[2-[(3S)-3-hydroxypyrrolidin-1-yl]-4-pyridyl]phenyl]methyl]-2-[4-(3-methylimidazol-4-yl)anilino]-2-oxo-ethyl]-2-methyl-pyrazole-3-carboxamide], the pEC50 was 6.00 to 7.00. As to `Cn1cncc1-c1ccc(NC(=O)C(Cc2cc(-c3ccnc(N4CC[C@@H](O)C4)c3)ccc2Cl)NC(=O)c2ccnn2C)cc1` (stereo partly drawn) [Example 192, N-[1-[[2-chloro-5-[2-[(3R)-3-hydroxypyrrolidin-1-yl]-4-pyridyl]phenyl]methyl]-2-[4-(3-methylimidazol-4-yl)anilino]-2-oxo-ethyl]-2-methyl-pyrazole-3-carboxamide], the pEC50 was 6.00 to 7.00. Consider `Cn1cncc1-c1ccc(NC(=O)C(Cc2cc(-c3ccnc(N4CC(O)C4)c3)ccc2Cl)NC(=O)c2ccnn2C)cc1` (centres unmarked) [Example 193, N-[1-[[2-chloro-5-[2-(3-hydroxyazetidin-1-yl)-4-pyridyl]phenyl]methyl]-2-[4-(3-methylimidazol-4-yl)anilino]-2-oxo-ethyl]-2-methyl-pyrazole-3-carboxamide], for which the pEC50 was 6.00 to 7.00.
